Data from patent US11339447B2, “System and method for determining Kareniticin sensitivity on cancer” (CROWN BIOSCIENCE, INC. (TAICANG), priority 2017, dated 2022).

Legend:
Test in all cases: karenitecin treatment of PDX model
Format in all cases: in vivo
Design in all cases: key to Response: responder: responded to karenitecin treatment (AUC<0.5 and TGI>0.8); non_responder: did not respond to karenitecin treatment (AUC>0.5 and TGI<0.6)
Settings in all cases: karenitecin treatment for two weeks
PDX ES0042 = test system: PDX ES0042
Description: (§1) A cohort of 48 PDX models in 8 cancers were used in this study. Those models were subject to karenitecin treatment for two weeks. Both tumor growth inhibition (TGI) and median AUC (area under curve) ratio, a newly developed metric to evaluate drug efficacy, were calculated (Table 1). Those models can be divided into two categories according to TGI and median AUC ratio.

PDX ES0110 = test system: PDX ES0110
Description: as §1

PDX GA0098 = test system: PDX GA0098
Description: as §1

PDX CR3310 = test system: PDX CR3310
Description: as §1

PDX OV0273 = test system: PDX OV0273
Description: as §1

PDX LU1868 = test system: PDX LU1868
Description: as §1

PDX LU1215 = test system: PDX LU1215
Description: as §1

PDX LU1116 = test system: PDX LU1116
Description: as §1

PDX CR1560 = test system: PDX CR1560
Description: as §1

PDX LU1235 = test system: PDX LU1235
Description: as §1

PDX LU1429 = test system: PDX LU1429
Description: as §1

PDX LU6429 = test system: PDX LU6429
Description: as §1

PDX LU2071 = test system: PDX LU2071
Description: as §1

PDX CR2520 = test system: PDX CR2520
Description: as §1

PDX SA0271 = test system: PDX SA0271
Description: as §1

PDX PA3065 = test system: PDX PA3065
Description: as §1

PDX PA1301 = test system: PDX PA1301
Description: as §1

PDX PA0527 = test system: PDX PA0527
Description: as §1

CC[C@@]1(O)C(=O)OCc2c1cc1n(c2=O)Cc2c-1nc1ccccc1c2CC[Si](C)(C)C [karenitecin]
Median AUC ratio (PDX ES0042): −0.100
Response (PDX ES0042): responder
TGI (PDX ES0042): 1.128
Median AUC ratio (PDX ES0110): 0.344
Response (PDX ES0110): responder
TGI (PDX ES0110): 1.010
Median AUC ratio (PDX GA0098): 0.512
Response (PDX GA0098): non_responder
TGI (PDX GA0098): 0.482
Median AUC ratio (PDX CR3310): −0.926
Response (PDX CR3310): responder
TGI (PDX CR3310): 1.727
Median AUC ratio (PDX OV0273): −0.092
Response (PDX OV0273): responder
TGI (PDX OV0273): 1.052
Median AUC ratio (PDX LU1868): 0.915
Response (PDX LU1868): non_responder
TGI (PDX LU1868): 0.534
Median AUC ratio (PDX LU1215): 0.232
Response (PDX LU1215): responder
TGI (PDX LU1215): 1.006
Median AUC ratio (PDX LU1116): 0.111
Response (PDX LU1116): responder
TGI (PDX LU1116): 1.250
Median AUC ratio (PDX CR1560): 0.397
Response (PDX CR1560): responder
TGI (PDX CR1560): 1.146
Median AUC ratio (PDX LU1235): −0.018
Response (PDX LU1235): responder
TGI (PDX LU1235): 0.932
Median AUC ratio (PDX LU1429): 0.076
Response (PDX LU1429): responder
TGI (PDX LU1429): 1.054
Median AUC ratio (PDX LU6429): 1.106
Response (PDX LU6429): non_responder
TGI (PDX LU6429): 0.241
Median AUC ratio (PDX LU2071): 0.037
Response (PDX LU2071): responder
TGI (PDX LU2071): 1.099
Median AUC ratio (PDX CR2520): 0.914
Response (PDX CR2520): non_responder
TGI (PDX CR2520): 0.288
Median AUC ratio (PDX SA0271): −0.133
Response (PDX SA0271): responder
TGI (PDX SA0271): 1.104
Median AUC ratio (PDX PA3065): 0.309
Response (PDX PA3065): responder
TGI (PDX PA3065): 1.019
Median AUC ratio (PDX PA1301): 1.038
Response (PDX PA1301): non_responder
TGI (PDX PA1301): 0.285
Median AUC ratio (PDX PA0527): 0.316
Response (PDX PA0527): responder
TGI (PDX PA0527): 0.996
